Experimental data: patent US7919261B2, “Methods for predicting treatment response based on the expression profiles of protein and transcription biomarkers” (Merck Sharp & Dohme Corp., priority 2006, dated 2011)

Assays:
[1] = system: DB; experiment: CellTiter-Blue Cell Viability Assay; assay type: cell-based; conditions: Homo sapiens; cell line DB, Lymphoma DLBCL; read-out: IC50 (μM) (Cell Titre-Blue assay)
Method: (§1) For the proliferation assay, cell lines were seeded on 96-well plates (Corning). […] The CellTiter-Blue Reagent™ was added to each of the wells. Experiments were performed in triplicate. The plates were then placed at 37° C. for two hours, and subsequently read on the Flex Station II […] from Molecular Devices. The IC50 values were calculated using the Sigma Plot software.
(§2) An expanded set of 50 human cell lines, including the twelve cell lines listed in Table 1, were assembled (Table 2), that represent a range of lymphoid tumor types (including 10 diffuse large B cell lymphoma, 10 Burkitt lymphoma, 8 multiple myeloma and 5 CTCL).

[2] = system: HUT_102; experiment: CellTiter-Blue Cell Viability Assay; assay type: cell-based; conditions: Homo sapiens, HuT-102; cell line HUT_102 (HUT102), Lymphoma - CTCL; read-out: IC50 (μM) (Cell Titre-Blue assay)
Method: as §1, §2

[3] = system: Toledo; experiment: CellTiter-Blue Cell Viability Assay; assay type: cell-based; conditions: Homo sapiens, cell line Toledo (1), Lymphoma DLBCL, read-out: IC50 (μM) (Cell Titre-Blue assay)
Method: as §1, §2

[4] = system: OCI_LY_19; experiment: CellTiter-Blue Cell Viability Assay; assay type: cell-based; conditions: Homo sapiens, OCI-LY19; cell line OCI_LY_19, Lymphoma DLBCL; read-out: IC50 (μM) (Cell Titre-Blue assay)
Method: as §1, §2

[5] = system: SU_DHL_4; experiment: CellTiter-Blue Cell Viability Assay; assay type: cell-based; conditions: Homo sapiens, SU-DHL-4; cell line SU_DHL_4, Lymphoma DLBCL; read-out: IC50 (μM) (Cell Titre-Blue assay)
Method: as §1, §2

[6] = system: IM_9; experiment: CellTiter-Blue Cell Viability Assay; assay type: cell-based; conditions: Homo sapiens, IM-9; cell line IM_9, Multiple Myeloma; read-out: IC50 (μM) (Cell Titre-Blue assay)
Method: as §1, §2

[7] = system: HuT_78; experiment: CellTiter-Blue Cell Viability Assay; assay type: cell-based; conditions: Homo sapiens, HuT78; cell line HuT_78, Lymphoma- CTCL; read-out: IC50 (μM) (Cell Titre-Blue assay)
Method: as §1, §2

[8] = system: RL; experiment: CellTiter-Blue Cell Viability Assay; assay type: cell-based; conditions: Homo sapiens; cell line RL, Lymphoma - DLBCL; read-out: IC50 (μM) (Cell Titre-Blue assay)
Method: as §1, §2

[9] = system: HUT78; experiment: TUNEL assay, vorinostat, JAK inhibitor and combination; assay type: cell-based, human; conditions: for % TUNEL positive cells: HUT78 cells, 48 h, induction of apoptosis
[10] = system: ST486; experiment: ApoONE Homogeneous Caspase-3/7 Assay; assay type: cell-based, human; conditions: cell line ST486
Method: (§3) Apoptosis assay: ApoONE® Homogeneous Caspase-3/7 Assay (Promega) was performed according to standard protocol (Promega). For the caspase assay cell lines were seeded and treated with vorinostat as previously indicated. After 24 hours of treatment, a volume equal to the media volume in each well of Apo-One Caspase 3/7 lysis was added to each well with cells. The apoptosis assay was then performed according to the manufacturer's instructions. The plates were read on the Flex Station II 384 from Molecular Devices. Where indicated, DNA fragmentation in response to vorinostat was also assessed in some cell lines by TUNEL assay (BD-PharMingen). […] Samples were analyzed by flow cytometry (FACSCalibur).
as §2

[11] = system: Toledo; experiment: ApoONE Homogeneous Caspase-3/7 Assay; assay type: cell-based, human
Method: as §3, §2

[12] = system: HH; experiment: ApoONE Homogeneous Caspase-3/7 Assay; assay type: cell-based, human; conditions: cell line HH
Method: as §3, §2

[13] = system: JM1; experiment: ApoONE Homogeneous Caspase-3/7 Assay; assay type: cell-based, human; conditions: cell line JM1
Method: as §3, §2

[14] = system: SUP_T1; experiment: ApoONE Homogeneous Caspase-3/7 Assay; assay type: cell-based, human; conditions: cell line SUP_T1 (SUPT1)
Method: as §3, §2

[15] = system: BC_3; experiment: ApoONE Homogeneous Caspase-3/7 Assay; assay type: cell-based, human; conditions: cell line BC_3
Method: as §3, §2

O=C(CCCCCCC(=O)Nc1ccccc1)NO [vorinostat, suberoylanilide hydroxamic acid]
IC50 [1]: 1.87 µM | IC50 [2]: 0.83 µM | IC50 [3]: 0.66 µM | IC50 [4]: 1.58 µM | IC50 [5]: 1.88 µM | IC50 [6]: 1.57 µM | IC50 [7]: 2.13 µM | IC50 [8]: 2.23 µM | % TUNEL positive cells [9]: 11% | Caspase 3,7 activation- 24 h (1 μM vorinostat)* [10]: + (Caspase 3,7 activation > 2 fold over untreated control.) | Caspase 3,7 activation- 24 h (1 μM vorinostat)* ([11]; cell line Toledo (1)): + (Caspase 3,7 activation > 2 fold over untreated control.) | Caspase 3,7 activation- 24 h (1 μM vorinostat)* ([11]; cell line Toledo (avg)): + (Caspase 3,7 activation > 2 fold over untreated control.) | Caspase 3,7 activation- 24 h (1 μM vorinostat)* [12]: + (Caspase 3,7 activation > 2 fold over untreated control.) | Caspase 3,7 activation- 24 h (1 μM vorinostat)* [13]: + (Caspase 3,7 activation > 2 fold over untreated control.) | Caspase 3,7 activation- 24 h (1 μM vorinostat)* [14]: + (Caspase 3,7 activation > 2 fold over untreated control.) | Caspase 3,7 activation- 24 h (1 μM vorinostat)* [15]: + (Caspase 3,7 activation > 2 fold over untreated control.)

CN[C@@H]1C[C@H]2O[C@@](C)([C@@H]1OC)n1c3ccccc3c3c4c(c5c6ccccc6n2c5c31)C(=O)NC4 [ST, staurosporine]
% TUNEL positive cells [9]: 40%

CC(C)(C)c1nc2c3cc[nH]c(=O)c3c3cc(F)ccc3c2[nH]1 [Compound B, 2-tert-butyl-9-fluoro-1,6-dihydro-7H-benzo[h]imidazo[4,5-f]isoquinolin-7-one]
induction of apoptosis in combination with vorinostat (TUNEL assay) ([9]; HUT78 CTCL cells, as detailed in Table 4): synergistic induction of apoptosis | % TUNEL positive cells [9]: 37%
